# Measurements from ChEMBL document CHEMBL1201862, “PubChem BioAssay data set” (2004).
#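 Tested at 5 concentrations; 48 h exposure; 96-well plates; endpoints linearly interpolated, else capped at highest concentration. GI50 is the concentration that inhibits growth by half.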 Active and inactive are the calls of the source. No stated cut-off is given here; in the data, active = GI50 up to about 1.1 µM and inactive = higher.
# Experiments:
# Experiment in all cases: NCI-60 cell line screen, 48 h
# SW-620 = tested on: SW-620
# SR = tested on: SR
# OVCAR-5 = tested on: OVCAR-5
# ACHN = tested on: ACHN
# CCRF-CEM = tested on: CCRF-CEM
# U-251 = tested on: U-251
# SK-MEL-2 = tested on: SK-MEL-2
# M14 = tested on: M14
# UO-31 = tested on: UO-31
# MDA-MB-231 = tested on: MDA-MB-231
# Malme-3M = tested on: Malme-3M
# TK-10 = tested on: TK-10
# HCT-116 = tested on: HCT-116
# HCC 2998 = tested on: HCC 2998
# EKVX = tested on: EKVX
# NCI-H522 = tested on: NCI-H522
# SN12C = tested on: SN12C
# OVCAR-8 = tested on: OVCAR-8
# NCI/ADR-RES = tested on: NCI/ADR-RES
# HCT-15 = tested on: HCT-15
Structure (SMILES),GI50 (SW-620),GI50 (SR),GI50 (OVCAR-5),GI50 (ACHN),GI50 (CCRF-CEM),GI50 (U-251),GI50 (SK-MEL-2),GI50 (M14),GI50 (UO-31),GI50 (MDA-MB-231),GI50 (Malme-3M),GI50 (TK-10),GI50 (HCT-116),GI50 (HCC 2998),GI50 (EKVX),GI50 (NCI-H522),GI50 (SN12C),GI50 (OVCAR-8),GI50 (NCI/ADR-RES),GI50 (HCT-15) [µM]
COc1ccc(NC(=S)N/N=C\c2ccc(NC(C)=O)cc2)cc1,> 100 µM (inactive),14.2 µM (inactive),> 100 µM (inactive),> 100 µM (inactive),> 100 µM (inactive),> 100 µM (inactive),> 100 µM (inactive),> 100 µM (inactive),> 100 µM (inactive),> 100 µM (inactive),> 100 µM (inactive),> 100 µM (inactive),> 100 µM (inactive),> 100 µM (inactive),> 100 µM (inactive),> 100 µM (inactive),> 100 µM (inactive),,,
O=[N+]([O-])c1sc2ccc(Cl)cc2c1Nc1ccc(Cl)cc1,> 100 µM (inactive),,> 100 µM (inactive),> 100 µM (inactive),> 100 µM (inactive),> 100 µM (inactive),> 100 µM (inactive),> 100 µM (inactive),> 100 µM (inactive),> 100 µM (inactive),> 100 µM (inactive),> 100 µM (inactive),,> 100 µM (inactive),> 100 µM (inactive),> 100 µM (inactive),> 100 µM (inactive),> 100 µM (inactive),> 100 µM (inactive),> 100
CC(C)(C)c1ccc(-c2nnc(-c3cc(C#N)cc(-c4nnc(-c5ccc(C(C)(C)C)cc5)o4)c3)o2)cc1,> 100 µM (inactive),,> 100 µM (inactive),> 100 µM (inactive),> 100 µM (inactive),> 100 µM (inactive),> 100 µM (inactive),> 100 µM (inactive),> 100 µM (inactive),> 100 µM (inactive),> 100 µM (inactive),> 100 µM (inactive),> 100 µM (inactive),> 100 µM (inactive),> 100 µM (inactive),> 100 µM (inactive),> 100 µM (inactive),> 100 µM (inactive),> 100 µM (inactive),> 100
C#Cc1cccc(N2C(=O)CCC2=O)c1,5.61 µM (inactive),1.74 µM (inactive),16.7 µM (inactive),16.7 µM (inactive),1.56 µM (inactive),1.67 µM (inactive),19.9 µM (inactive),7.62 µM (inactive),17.7 µM (inactive),12.2 µM (inactive),14.7 µM (inactive),16.2 µM (inactive),9.08 µM (inactive),15 µM (inactive),18.3 µM (inactive),4.17 µM (inactive),18.5 µM (inactive),18.5 µM (inactive),,22.1
CON(C)C(=O)C(C)N(Cc1ccccc1)Cc1ccccc1 (centres undefined),> 100 µM (inactive),69 µM (inactive),> 100 µM (inactive),74.8 µM (inactive),50.8 µM (inactive),> 100 µM (inactive),,68.7 µM (inactive),38.5 µM (inactive),,> 100 µM (inactive),> 100 µM (inactive),50.2 µM (inactive),> 100 µM (inactive),65.8 µM (inactive),,> 10 µM (inactive),> 100 µM (inactive),45.5 µM (inactive),34.8
CC(O)c1cc2c(s1)C(=O)c1c(C(C)O)csc1C2=O (centres undefined),0.118 µM (active),,0.277 µM (active),0.261 µM (active),0.173 µM (active),0.316 µM (active),0.148 µM (active),0.126 µM (active),0.316 µM (active),0.063 µM (active),0.0329 µM (active),0.544 µM (active),0.14 µM (active),0.351 µM (active),0.364 µM (active),0.305 µM (active),0.138 µM (active),0.22 µM (active),0.146 µM (active),0.133
